Columns and labels:
human NPP5 = target: T1, human NPP5 (Homo sapiens, UniProt Q9UJA9); assay: NPP5 assay with ϵ-NAD+ as substrate; assay type: biochemical; details: for inhibition at 10 µM: 10 µM test compound; for Ki: 20 µM ϵ-NAD+, read-out: Ki ± SEM
T1 construct: the catalytic domains of the enzymes were amplified and sub-cloned into the expression vector pACGP67 A/B; 9xHis (C); made in house; host or cells: Sf9 insect cells (baculovirus, pACGP67 A/B)
T1 sequence (Q9UJA9 25-431 limits assumed): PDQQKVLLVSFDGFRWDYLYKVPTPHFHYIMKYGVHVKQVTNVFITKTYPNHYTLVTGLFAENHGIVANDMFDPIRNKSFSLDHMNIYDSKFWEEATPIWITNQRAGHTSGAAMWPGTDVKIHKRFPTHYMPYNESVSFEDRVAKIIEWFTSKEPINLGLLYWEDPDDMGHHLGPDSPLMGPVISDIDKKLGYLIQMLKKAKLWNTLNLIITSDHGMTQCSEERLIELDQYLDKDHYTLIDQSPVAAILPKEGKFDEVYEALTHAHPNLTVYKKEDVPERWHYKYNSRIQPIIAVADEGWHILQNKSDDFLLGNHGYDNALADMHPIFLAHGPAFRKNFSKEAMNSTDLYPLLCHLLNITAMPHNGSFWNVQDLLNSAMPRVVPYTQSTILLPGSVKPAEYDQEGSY
From the text: The cDNAs of the human enzymes NPP1, NPP3, NPP5, CD38 and CD73 (Genbank accession no. NM_006258, NM_005021, NM_021572, NM_ 001775, and NM_002526, respectively) were obtained from Origene (Rockville, USA). Soluble enzymes were produced as previously reported with some modifications ([Lee et al., 2015]; [Junker et al., 2019]). Briefly, the catalytic domains of the enzymes were amplified and sub-cloned into the expression vector pACGP67 A/B modified with the addition of 9 x histidine tag (His-tag) at the C-terminus (except for NPP1). The plasmids were transfected in Sf9 insect cells using Cellfectin™ II Reagent (Thermo Fisher Scientific, MA, USA) and ProEasy™ baculovirus linearized DNA (Cat.#A10S, AB Vector, LLC). Protein expression was conducted for 48 h at 27°C. The signal peptide sequence of the expression vector shuttled the proteins into the supernatant. The supernatant medium was collected, and the enzymes were purified using HisPur™ Ni^2+-NTA spin columns according to the manufacturer’s protocol. The protein concentration was determined by the method previously described by [Lowry et al. (1951)].
The assays were performed in analogy to published procedures ([Blacher et al., 2015]). The enzymatic activity of human NPP3 and NPP5 (soluble forms expressed in insect cells and purified as previously described ([Lee et al., 2015]; [Lopez et al., 2020]) was measured using 1,N^6-etheno-nicotinamide adenine dinucleotide (ϵ-NAD^+) as a substrate, which is hydrolyzed to fluorescent 1,N^6-etheno-AMP (ϵ-AMP). The enzymatic reactions were performed in reaction buffer [10 mM N-cyclohexyl-2-aminoethanesulfonic acid (CHES), 2 mM CaCl2, and 1 mM MgCl2, pH 9.0 in H2O]. Purified NPP3 (90 ng) or NPP5 (400 ng), 20 µM of ϵ-NAD^+ and 10 µM of the test compound were incubated for 30 min at 37°C. The relative fluorescence at 270 nm excitation and 420 nm emission was detected by a fluorescence microplate reader (Flexstation, Medical Devices LLC. USA, Softmax Pro software to collect the data).

human CD39 = target: T2, human CD39 (Homo sapiens, UniProt P49961); assay: Malachite green assay for CD39 (natural substrate ATP); assay type: biochemical; design: Human umbilical cord membrane preparations (250 ng) natively expressing high amounts of CD39; from tissue; host or cells: human umbilical cord membranes; details: natural substrate ATP 50 µM, n = 3, read-out: Ki ± SEM (converted)
T2 sequence (P49961 1-510): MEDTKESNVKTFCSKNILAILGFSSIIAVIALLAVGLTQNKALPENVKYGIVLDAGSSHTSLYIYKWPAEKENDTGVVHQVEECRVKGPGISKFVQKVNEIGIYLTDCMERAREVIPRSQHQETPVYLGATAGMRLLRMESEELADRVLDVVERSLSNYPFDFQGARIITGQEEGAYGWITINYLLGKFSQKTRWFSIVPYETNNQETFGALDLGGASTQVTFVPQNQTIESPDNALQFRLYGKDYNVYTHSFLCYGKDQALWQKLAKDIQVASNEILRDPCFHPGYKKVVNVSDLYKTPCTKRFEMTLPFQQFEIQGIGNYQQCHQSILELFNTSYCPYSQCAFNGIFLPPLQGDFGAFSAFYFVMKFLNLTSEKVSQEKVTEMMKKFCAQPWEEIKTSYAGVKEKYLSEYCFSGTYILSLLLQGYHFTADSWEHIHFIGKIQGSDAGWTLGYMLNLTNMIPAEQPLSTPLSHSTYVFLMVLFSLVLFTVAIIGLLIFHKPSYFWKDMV
Experimental: They were minced and homogenized with a polytron in 95 mM NaCl, 0.1 mM phenylmethylsulfonyl fluoride (PMSF), and 45 mM Tris solution, pH 7.6. […] The pellets were resuspended in 5 mM Tris buffer solution, pH 8.0 and 10% glycerol. All purification steps were performed at 4°C. The preparations were kept at −80°C.
The reaction buffer contained 10 mM HEPES, 2 mM CaCl2, 1 mM MgCl2, pH 7.4 in a final volume of 50 μl in transparent 96-well half area plates. For CD39 (NTPDase1), we made use of human umbilical cord membranes preparations which express high levels of the enzyme. For the other human NTPDase isoenzymes, we had to resort to recombinant expression. […] The amount of enzyme preparation was adjusted to ensure 10–20% of substrate conversion. […] The released (inorganic) phosphate was quantified after 20 min of gentle shaking at 25°C by measuring the absorption of the malachite green-phosphomolybdate complex at 600 nm using a BMG PheraStar FS plate reader (BMG Labtech GmbH, Ortenberg, Germany).
% Inhibition=(B−T)/B*100%
where B is the average corrected absorption of the positive control without inhibitor and T the corrected absorption in the presence of test compound.
Full concentration-inhibition curves were determined with inhibitor concentrations ranging from 0.1 to 300 µM in the presence of 2% DMSO. Three independent experiments were performed (n = 3) and curves were calculated by the GraphPad Prism 8 software. The Ki value was calculated using the Cheng-Prusoff equation for competitive inhibitors: […]

Row | SMILES | inhibition at 10 µM (human NPP5) | Ki (human NPP5) | Ki (human CD39)
1 | CCCCSc1nc2c(N)ncnc2n1[C@@H]1O[C@H](COP(=O)(O)OP(=O)(O)C(Br)(Br)P(=O)(O)O)[C@@H](O)[C@H]1O [Compound 31, (((((((2R,3S,4R,5R)-5-(6-Amino-8-(butylthio)-9H-purin-9-yl)-3,4-dihydroxytetrahydrofuran-2-yl)methoxy)(hydroxy)-phosphoryl)oxy)(hydroxy)phosphoryl)dibromomethyl)-phosphonic Acid] | 2% | > 10 µM | 
2 | CCN(CC)c1ncnc2c1ncn2[C@@H]1O[C@H](COP(=O)(O)OP(=O)(O)C(Br)(Br)P(=O)(O)O)[C@@H](O)[C@H]1O [ARL67156, (Dibromo((((((2R,3S,4R,5R)-5-(6-(diethylamino)-9H-purin-9-yl)-3,4-dihydroxytetrahydrofuran-2-yl)methoxy)-(hydroxy)-phosphoryl)oxy)(hydroxy)phosphoryl)methyl)-phosphonic Acid, reference compound] | -3% | > 10 µM | 
3 | CCCCNc1nc2c(NC)ncnc2n1[C@@H]1O[C@H](COP(=O)(O)OP(=O)(O)C(Br)(Br)P(=O)(O)O)[C@@H](O)[C@H]1O [Compound 33, (Dibromo((((((2R,3S,4R,5R)-5-(8-(butylamino)-6-(methylamino)-9H-purin-9-yl)-3,4-dihydroxy-tetrahydrofuran-2-yl)methoxy)(hydroxy)phosphoryl)oxy)-(hydroxy)phosphoryl)methyl)-phosphonic Acid] | 1% | > 10 µM | 3.35 µM

— publication PMC7508162 (Frontiers in Pharmacology, 2020)
